Biological target: Nicotinamide phosphoribosyltransferase (Homo sapiens, UniProt P43490)
Assay: NMN Fluorescence Biochemical Assay
Protocol: Human Recombinant Enzyme Assay: Compounds described herein were assayed for their ability to stimulate the synthesis of nicotinamide mononucleotide (NMN) by the enzyme NAMPT. The human recombinant enzyme assay measures the activation of the enzyme activity by compounds using recombinant enzyme and substrates in a buffered cell-free system. The assay conditions closely mimic cellular environments. Dose responses were measured using an assay to detect the formation of nicotinamide mono-nucleotide. All experiments were performed in the 384-well format. Generally, 0.5 μL of DMSO containing varying concentrations of the test compound was mixed with 10 μL of the enzyme reagent solution. Enzyme reactions were initiated with the addition of 10 μL of a solution containing the substrates. The final assay conditions were as follows: 6 nM human NAMPT, 2.5 mM ATP, […] in 50 mM HEPES, pH 7.2, 1 mM DTT, 1 mM CHAPS 50 mM NaCl, 100 mM MgCl2. Following an incubation of 60 min at ambient temperature, 10 μL of 20% acetophenone in DMSO was added, followed by 10 μL of 2 M KOH and 40 μL of formic acid. The plates were read for fluorescence (Excitation/Emission=355 nm/460 nm) using an EnVision plate reader after 40 mins of incubation at ambient temperature. […]

Chain of Nicotinamide phosphoribosyltransferase (P43490 whole entry): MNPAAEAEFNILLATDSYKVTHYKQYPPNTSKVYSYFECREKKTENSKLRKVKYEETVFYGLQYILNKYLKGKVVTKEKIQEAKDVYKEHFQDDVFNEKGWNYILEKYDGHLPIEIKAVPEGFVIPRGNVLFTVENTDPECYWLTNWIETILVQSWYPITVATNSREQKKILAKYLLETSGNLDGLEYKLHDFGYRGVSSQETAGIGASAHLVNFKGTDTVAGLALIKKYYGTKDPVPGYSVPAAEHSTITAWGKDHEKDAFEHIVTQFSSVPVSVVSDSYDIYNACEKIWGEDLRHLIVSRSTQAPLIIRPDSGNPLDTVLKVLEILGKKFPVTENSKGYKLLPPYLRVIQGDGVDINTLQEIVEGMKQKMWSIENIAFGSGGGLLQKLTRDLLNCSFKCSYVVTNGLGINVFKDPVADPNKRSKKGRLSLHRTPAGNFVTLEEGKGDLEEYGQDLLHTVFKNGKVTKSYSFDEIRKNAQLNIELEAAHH

| SMILES | EC50 [µM] |
| --- | --- |
| Cc1nc(C(=O)N2CCN(Cc3ccccc3)C(=O)C2)nc(NCCc2cn[nH]c2)c1C [US20240067631, Compound 45] | 3.52 |
| Cc1ccc([C@@H](C)NC(=O)c2nc(C)c(C)c(NCCc3cn[nH]c3)n2)o1 [US20240067631, Compound 101] | 4.09 |
